Test results published in patent US9449726B2, “100Mo compounds as accelerator targets for production of 99mTc” (Washington University, priority 2013, dated 2016).
“Also recorded” adds a separate entry of the source.

Tested on: normal CD1 mice
Assay: SPECT/CT imaging of ^99mTc-MDP in small animals
Format: in vivo
Experimental: Preparation of ^99mTc-methylene diphosphonate (^99mTc-MDP) and Animal Imaging Studies. All animal studies were approved by the Animal Studies Committee at Washington University. ^99mTc-MDP was prepared using commercially available kits. 3.9 mg of a sterile lyophilized powder containing methylene diphosphonate as the main constituent, under the trade name MDP-BRACCO™ (Bracco Diagnostics Inc., Princeton, N.J.) was dissolved in 135 μL saline solution. From this solution 10 μL was pipetted and added to the 400 μL of 1.6×10^8Bq (4.3 mCi)^99mTcO4^− containing saline solution. Radio-ITLC was performed on this solution as described above. 100 μL of the prepared radiopharmaceutical with an activity of 2.0×10^7 Bq (0.55 mCi) was injected into one month old normal CD1 mice via tail vein followed by small animal SPECT/CT imaging (nanoSPECT, Bioscan, Washington D.C.). CT scans were performed using a tube voltage of 45 kV and a scan time of 1.5 seconds per projection while the animals were anesthetized by isofluorane. SPECT data were collected by monitoring in as helical scan at 45 projections and 60 seconds per projection using a 9-pinhole low energy collimator. SPECT images were collected for 45 minutes at 1.5, 3 and 4 hours post injection. The CT and SPECT images were reconstructed and colocalized using InVivoScope (inviCRO, LLC, Boston Mass.) and HiSPECT (Bioscan, Washington, D.C.).
In these experiments, activities of 2.0×10^7Bq of ^99mTc were injected into each mouse. Scan times of 45 minutes were employed in imaging while each mouse was anesthetized with isoflurane. FIG. 5 illustrates SPECT images of mice imaged at (a) 1.5 hours (b) 3 hours and (c) 4 hours post injection.

For `O.O.O=P([O-])([O-])CP(=O)([O-])[O-].[99Tc+4]` [^99mTc-MDP, ^99mTc-methylene diphosphonate], the “SPECT images: uniformity of uptake in the backbone” value (CD1 mice, tail vein) was “relatively uniform”, the “SPECT images: activity at the earliest time point” value (CD1 mice, tail vein, 1.5 hours post injection (FIG. 5A)) was “activity in the kidneys and bladder as expected; also recorded: activity was seen in the excretory organs as shown in FIG. 5A, namely the kidneys and bladder” and the “SPECT images: change of activity as time progressed” value (CD1 mice, tail vein, 3 hours and 4 hours post injection (FIGS. 5B and 5C)) was “clearance of radioactivity from these organs and increased accumulation in the bones and joints”. The “SPECT images: regional uptake in the skeleton” value (CD1 mice, tail vein, backbone and joints) was “high activity uptake in the cervical, thoracic and lumbar regions of the backbone and major joints” and the “SPECT images: tissue uptake of ^99mTc” value (one month old normal CD1 mice, tail vein injection, 2.0×10^7 Bq (0.55 mCi), imaged 1.5, 3 and 4 hours post injection) was “accumulation of ^99mTc in the bones and joints; also recorded: uptake of the ^99mTc in the bones as expected”.
